Publication PMC11355700, “Antioxidant and Skin-Whitening Efficacy of a Novel Decapeptide (DP, [sequence]) Derived from Fish By-Products” (Marine Drugs, 2024)

Experiments:
[1] = ABTS radical scavenging activity; format: biochemical; conditions: n = 3
Method: The ABTS radical scavenging activity of C. notate head hydrolysate was determined by an adaptation of the ABTS radical cation decolorization assay of Re et al.. A 7 mM ABTS solution and a 2.45 mM potassium persulfate (Sigma Co., Fukushima, Japan) solution were mixed (v/v) to a final concentration and allowed to stand in the dark at room temperature (RT) for 24 h. Afterward, distilled water was added to dilute the solution until the absorbance at 732 nm reached 0.70 (±0.02). Then, 990 μL of this diluted ABTS solution was mixed with 10 μL of the sample solution and incubated at RT for 1 min. The absorbance was measured at 732 nm (Figure 1).

[2] = previous research; cited from earlier work
Excerpt: (§1) This study aims to evaluate the antioxidant and skin-whitening effects of this novel decapeptide (DP) through in vitro and in silico analyses and to establish its potential as a new skin-whitening agent.

tyrosinase = conditions: previous research; cited from earlier work
Excerpt: as §1

tyrosinase mRNA = assay: RT-PCR of tyrosinase mRNA in α-MSH-stimulated B16F10 cells; format: cell-based, mouse; conditions: 0.1, 1, and 10 μM; α-MSH 200 nM; normalized to GAPDH
Method: (§2) B16F10 melanoma cells were obtained from the KCLB and cultured in DMEM medium supplemented with 10% FBS (Gibco BRL, Grand Island, NY, USA) and 1% penicillin. The cells were incubated in a humidified incubator at 37 °C and 5% CO2.
(§3) Total RNA was extracted using the High Pure RNA Isolation Kit (Invitrogen Co., Waltham, MA, USA) according to the manufacturer’s instructions and quantified using a NanoDrop (Thermo Scientific, Waltham, MA, USA). For the reverse transcription reaction, 1 μg of isolated RNA and 1 μL of oligo DT (100 pM) were combined with DEPC to a total volume of 11 μL, followed by the reverse transcription reaction using the RT Premix Kit (Bioneer Co., Daejeon, Republic of Korea) as per the manufacturer’s protocol. PCR for MITF, Tyrosinase, and MC1R genes was conducted using 2 μL of the cDNA products obtained from the reverse transcription reaction, with the PCR Premix Kit (Bioneer Co.) according to the manufacturer’s instructions. The cDNA products amplified by reverse transcription and polymerase chain reaction were analyzed by electrophoresis on 2.0% agarose gels containing ethidium bromide.

B16F10 melanoma cells [3] = assay: Cytotoxicity (MTT) in B16F10 melanoma cells; format: cell-based, mouse; conditions: 12.5, 50, and 100 μM, 24 h
Method: as §2
To determine the cytotoxicity of DP and establish the concentration range for the experiment, an MTT assay was conducted. Cells were seeded in 96-well plates at a density of 1.0 × 10^4 cells/well. After 24 h, once the cells were fully attached, the medium was replaced with fresh medium containing 200 nM α-MSH and various concentrations of DP. After another 24 h of incubation, an MTT assay was performed.

HaCaT cells [4] = assay: Cell viability (MTT) of H2O2-treated HaCaT cells; format: cell-based, human; conditions: DP 50, 100, 200 μM with H2O2 500 μM, 24 h, n = 3
Method: (§4) The cell line used in the experiment, the HaCaT cell line, a human keratinocyte, was purchased from the Korea Cell Line Bank (KCLB, Seoul, Republic of Korea). HaCaT cells were cultured in a DMEM medium supplemented with 10% FBS and 1% penicillin–streptomycin. The cells were subcultured every 2 to 3 days in an incubator maintained at 37 °C and 5% CO2.
To assess the cytotoxicity of DP and H2O2, cells (1 × 10^4 in a 96-well plate) were cultured at 37 °C and 5% CO2 for 24 h. The cultured cells were then treated with DP and H2O2. After 24 h of treatment, 10 μL of MTT (5 mg/mL) solution was added, and the cells were incubated for 4 h. Following this, the supernatant was removed, and 100 μL of DMSO was added to each well. The absorbance was measured at 550 nm using an ELISA reader.

[5] = Ferric reducing antioxidant power (FRAP); format: biochemical; conditions: FRAP reagent pH 3.6, 5 min, 37 °C, 593 nm, n = 3
Method: FRAP was measured using the method adapted from Benzie and Strain [46]. The FRAP reagent was prepared by mixing a 300 mM sodium acetate buffer (pH 3.6), a 10 mM 2,4,6-tripyridyl-s-triazine (TPTZ) solution dissolved in 40 mM HCl, and a 20 mM FeCl3 solution in a 10:1:1 ratio just before the experiment. A 10 μL sample of each concentration was mixed with 200 μL of FRAP reagent, incubated for 5 min at 37 °C, and then the absorbance was measured at 593 nm using a Microplate Spectrophotometer (xMarkTM, BIO-RAD, Hercules, CA, USA). The FRAP value of the sample was determined by applying the absorbance values to a standard calibration curve prepared with 0–5 mM FeSO4·H2O, and the results were expressed as FeSO4 equivalent mM/μM.

MC1R mRNA = assay: RT-PCR of MC1R mRNA in α-MSH-stimulated B16F10 cells; format: cell-based, mouse; conditions: 0.1, 1, and 10 μM; α-MSH 200 nM; normalized to GAPDH
Method: as §2, §3

MITF mRNA = assay: RT-PCR of MITF mRNA in α-MSH-stimulated B16F10 cells; format: cell-based, mouse; conditions: 0.1, 1, and 10 μM; α-MSH 200 nM; normalized to GAPDH
Method: as §2, §3

mushroom tyrosinase = assay: Tyrosinase inhibitory activity (DOPA chrome formation); format: biochemical; conditions: DL-DOPA substrate, pH 6.8, 37 °C, 10 min, 475 nm
Method: The inhibitory activity of tyrosinase, which is involved in the key steps of melanin synthesis, was measured using a colorimetric method modified from Masamoto et al. by detecting the formation of DOPA chrome as a result of the enzyme’s action. As a substrate, a mixture containing 0.2 mL of 5 mM DL-DOPA solution, 0.2 mL of 0.1 M phosphate buffer (pH 6.8), and 0.5 mL of sample solution was prepared. To this mixture, 0.1 mL of mushroom tyrosinase (Sigma Co., 250 unit/mL) was added and incubated at 37 °C for 10 min. After incubation, the absorbance was measured at a wavelength of 475 nm to calculate the tyrosinase inhibitory activity.

B16F10 melanoma cells [6] = assay: Melanin content and morphology in α-MSH-induced B16F10 melanoma cells; format: cell-based, mouse; conditions: for Melanin content: α-MSH (200 nM) 24 h, α-MSH treated group 152.36%, 405 nm
Method: as §2
To measure melanin production in B16F10 cells, cells were seeded in 6-well plates at a density of 5 × 10^4 cells/well. After 24 h, the medium was replaced with fresh medium containing 2% FBS, 200 nM α-MSH, and various concentrations of DP. […] After incubation, the cells were washed with PBS, harvested by centrifugation, and the melanin content was visually inspected. The harvested cells were dissolved in 400 μL of 0.2 N NaOH solution and incubated at 60 °C for 1 h. The absorbance was measured at 405 nm using a microplate reader.

HaCaT cells [7] = assay: ROS generation (DCFH-DA) in H2O2-treated HaCaT cells; format: cell-based, human; conditions: DP 50, 100, 200 μM; H2O2 500 μM, 24 h; DCFH-DA 25 μM, 30 min; n = 3
Method: as §4
HaCaT cells were seeded at 1 × 10^4 cells per well in a 96-well black plate and cultured for 24 h. The cultured cells were treated with DP at concentrations of 50, 100, and 200 μM and then exposed to 500 μM H2O2 for 24 h to induce ROS generation. After H2O2 treatment, the cells were stained with 25 μM dichlorodihydro-fluorescein diacetate (DCFH-DA) for 30 min. The fluorescence intensity corresponding to intracellular ROS production was measured using a fluorescent spectrophotometer at an excitation wavelength of 485 nm and an emission wavelength of 530 nm. The results were expressed as ROS production (%) relative to the fluorescence measurement value of the untreated control, which was set to 100.

Tyrosinase inhibitory activity (mushroom tyrosinase; 62.5 μM): 7.05% | Tyrosinase inhibitory activity (mushroom tyrosinase; 125 μM): 19.62% | Tyrosinase inhibitory activity (mushroom tyrosinase; 250 μM): 26.29% | Tyrosinase inhibitory activity (mushroom tyrosinase; 500 μM): 62.67% | Tyrosinase inhibitory activity (mushroom tyrosinase; 1000 μM): 84.38%
Sequence: KGYSSYICDK [DP]
ABTS radical scavenging, concentration dependence ([1]; 732 nm): concentration-dependent ABTS radical scavenging activity | ABTS radical scavenging ([1]; concentrations above 20 μM, 732 nm): over 90% | ABTS radical scavenging vs Vit. C ([1]; concentrations above 20 μM, p < 0.05): significantly outperforming Vit. C | Free radical scavenging activity [2]: free radical scavenging | Tyrosinase inhibitory activity (tyrosinase): tyrosinase inhibitory activities | Tyrosinase mRNA level (tyrosinase mRNA): dose-dependent and significant decrease | Cytotoxicity in B16F10 melanoma cells (B16F10 melanoma cells [3]): No cytotoxicity was observed | Cell viability of H2O2-treated HaCaT cells (HaCaT cells [4]): enhanced cell viability in a dose-dependent manner | FRAP activity vs Vitamin C ([5]; 1000 μM, p < 0.05): significant activity at 1000 μM, comparable to Vitamin C | FRAP activity, concentration dependence ([5]; FeSO4 equivalents): dose-dependent FRAP activity | MC1R mRNA level (MC1R mRNA): dose-dependent and significant decrease | MITF mRNA level (MITF mRNA): dose-dependent and significant decrease | Melanin content (B16F10 melanoma cells [6]; 0.1 μM): 120.32% | Melanin content (B16F10 melanoma cells [6]; 1 μM): 105.24% | Melanin content (B16F10 melanoma cells [6]; 10 μM): 83.21% | Melanin formation, morphological observation (B16F10 melanoma cells [6]; starting from 0.1 μM, α-MSH 200 nM, 200× magnification): melanin formation was inhibited starting from the 0.1 μM concentration | ROS levels in H2O2-treated HaCaT cells (HaCaT cells [7]): significantly reduced
